The values below come from US10444149B2, “Fluorescent compounds as sensing agents” (OHIO NORTHERN UNIVERSITY, priority 2016, dated 2019).

Marks after values point to notes of the source that are not given here.

One data set is described as follows: Peak absorption wavelength, peak emission wavelength and fluorescent quantum yield. It is filed as physicochemical. The following applies: solvent acetonitrile. The source says:
Table 2 provides a peak absorption wavelength (λabs maximum), peak emission wavelength (λem maximum), a fluorescent quantum yield (ΦF), and a synthesis yield for the various compounds. The synthesis yield is based on the synthetic pathway illustrated in FIG. 1.
Consider `COC(=O)C(C)(C)C1Oc2ccc(C)cc2C(=O)/C1=C\NS(=O)(=O)c1ccc(C)cc1` (stereo not drawn) [Compound 19, (Z)-methyl 2-methyl-2-(6-methyl-3-((4-methylphenylsulfonamido)methy-lene)-4-oxochroman-2-yl)propanoate], for which the ΦF was 8** %, the λabs maximum came out at 380 nm and the λem maximum stood at 468 nm.

The same data set, now with this note: solvent cyclohexane.
Regarding `COC(=O)C(C)(C)C1Oc2ccc(C)cc2C(=O)/C1=C\NS(=O)(=O)c1ccc(C)cc1` (stereo not drawn) [Compound 19, (Z)-methyl 2-methyl-2-(6-methyl-3-((4-methylphenylsulfonamido)methy-lene)-4-oxochroman-2-yl)propanoate], the ΦF is 27*** %, the λabs maximum turned out to be 364 nm and the λem maximum worked out at 479 nm.

The same data set, now with this note: solvent dichloromethane.
On to `COC(=O)C(C)(C)C1Oc2ccc(C(C)C)cc2C(=O)/C1=C\NS(=O)(=O)c1ccc(C)cc1` (stereo not drawn) [Compound 21, (Z)methyl-2-(6-isopropyl-3-(((4-methylphenyl)sulfonamido)methy-lene)-4-oxochroman-2-yl)-2-methylpropanoate], for which the ΦF is 71* %, the λabs maximum was 368 nm and the λem maximum is recorded as 490 nm.
With `COC(=O)C(C)(C)C1Oc2ccc(OC)cc2C(=O)/C1=C\NS(=O)(=O)c1ccc(C)cc1` (stereo not drawn) [Compound 22, (Z)-methyl-2-(6-methoxy-3-(((4-methylphenyl)sulfonamido)methy-lene)-4-oxochroman-2-yl)-2-methylpropanoate], the ΦF is listed as 66* %, the λabs maximum is 390 nm and the λem maximum stood at 529 nm.
The corresponding values for `COC(=O)C(C)(C)C1Oc2ccc(F)cc2C(=O)/C1=C\NS(=O)(=O)c1ccc(C)cc1` (stereo not drawn) [Compound 16, (Z)-methyl 2-(6-fluoro-3-((4-methylphenylsulfonamido)methy-lene)-4-oxochroman-2-yl)-2-methylpropanoate] are 33* %, 367 nm and 492 nm.
Take `COC(=O)C(C)(C)C1Oc2ccc(F)cc2C(=O)/C1=C\O` (stereo not drawn) [Compound 6, (Z)-methyl 2-(6-fluoro-3-(hydroxymethylene)-4-oxochroman-2-yl)-2-methylpropanoate]: the ΦF is 2* %, the λabs maximum was 364 nm and the λem maximum amounted to 486 nm.
Turning to `COC(=O)CC1Oc2ccc(OC)cc2C(=O)/C1=C\NS(=O)(=O)c1ccc(OC)cc1` (stereo not drawn) [Compound 26, (Z)-methyl-2-(6-methoxy-3-(((4-methoxyphenyl)sulfonamido)methy-lene)-4-oxochroman-2-yl)acetate], the ΦF was 67* %, the λabs maximum came out at 386 nm and the λem maximum was determined as 529 nm.
The corresponding values for `COC(=O)C(C)(C)C1Oc2ccc(Br)cc2C(=O)/C1=C\NS(=O)(=O)c1ccc(C)cc1` (stereo not drawn) [Compound 18, (Z)-methyl 2-(6-bromo-3-((4-methylphenylsulfonamido)methy-lene)-4-oxochroman-2-yl)-2-methylpropanoate] are 34* %, 343 nm and 483 nm.
Regarding `COC(=O)C(C)(C)C1Oc2ccccc2C(=O)/C1=C\NS(=O)(=O)c1ccc(C)cc1` (stereo not drawn) [Compound 15, (Z)-methyl 2-methyl-2-(3-((4-methylphenylsulfonamido)methy-lene)-4-oxochroman-2-yl)propanoate], the ΦF is 37* %, the λabs maximum came out at 358 nm and the λem maximum amounted to 479 nm.
For the compound `COC(=O)C(C)(C)C1Oc2ccc(C)cc2C(=O)/C1=C\NS(=O)(=O)c1ccc(C)cc1` (stereo not drawn) [Compound 19, (Z)-methyl 2-methyl-2-(6-methyl-3-((4-methylphenylsulfonamido)methy-lene)-4-oxochroman-2-yl)propanoate], the ΦF is 70* %, the λabs maximum was 367 nm and the λem maximum was determined as 492 nm.
Consider `COC(=O)C(C)(C)C1Oc2ccc(Cl)cc2C(=O)/C1=C\NS(=O)(=O)c1ccc(C)cc1` (stereo not drawn) [Compound 17, (Z)-methyl 2-(6-chloro-3-((4-methylphenylsulfonamido)methy-lene)-4-oxochroman-2-yl)-2-methylpropanoate], for which the ΦF was 39* %, the λabs maximum is recorded as 367 nm and the λem maximum was 483 nm.
Regarding `COC(=O)C(C)(C)C1Oc2ccccc2C(=O)/C1=C\O` (stereo not drawn) [Compound 5, (Z)-methyl 2-(3-(hydroxymethylene)-4-oxochroman-2-yl)-2-methylpropanoate], the ΦF is listed as 6* %, the λabs maximum is on record as 362 nm and the λem maximum amounted to 446 nm.
For `COC(=O)C(C)(C)C1Oc2ccccc2C(=O)/C1=C\NS(=O)(=O)c1ccc(OC)cc1` (stereo not drawn) [Compound 23, (Z)methyl-2-(3-(((4-methoxyphenyl)sulfonamido)methy-lene)-4-oxochroman-2-yl)-2-methylpropanoate], the ΦF is on record as 38* %, the λabs maximum came out at 358 nm and the λem maximum amounted to 479 nm.
The corresponding values for `COC(=O)C(C)(C)C1Oc2ccc(C)cc2C(=O)/C1=C\NS(=O)(=O)c1ccc(OC)cc1` (stereo not drawn) [Compound 24, (Z)methyl-2-(3-(((4-methoxyphenyl)sulfonamido)methy-lene)-6-methyl-4-oxochroman-2-yl)-2-methylpropanoate] are 72* %, 367 nm and 492 nm.
On the same counts, the results for `COC(=O)C(C)(C)C1Oc2c(Br)cc(Br)cc2C(=O)/C1=C\O` (stereo not drawn) [Compound 14, (Z)-methyl 2-(6,8-dibromo-3-(hydroxymethylene)-4-oxochroman-2-yl)-2-methylpropanoate] are 3* %, 371 nm and 451 nm.
